Source: US11203597B2, “Crystalline spirocyclic compound, a dosage form containing, a method for using in treatment of disease, and a method for recrystallizing” (Altavant Sciences GmbH, priority 2018, dated 2021)
Converted amounts (≈) assume the structure as drawn.

What was measured:
[1] = target: T1, TPH1 (Mus musculus, UniProt P17532); settings: U.S. Pat. No. 9,199,994, Example 63i and Table 27; cited from earlier work
T1 construct: host or cells: mice (in vivo)
T1 sequence (P17532 1-447): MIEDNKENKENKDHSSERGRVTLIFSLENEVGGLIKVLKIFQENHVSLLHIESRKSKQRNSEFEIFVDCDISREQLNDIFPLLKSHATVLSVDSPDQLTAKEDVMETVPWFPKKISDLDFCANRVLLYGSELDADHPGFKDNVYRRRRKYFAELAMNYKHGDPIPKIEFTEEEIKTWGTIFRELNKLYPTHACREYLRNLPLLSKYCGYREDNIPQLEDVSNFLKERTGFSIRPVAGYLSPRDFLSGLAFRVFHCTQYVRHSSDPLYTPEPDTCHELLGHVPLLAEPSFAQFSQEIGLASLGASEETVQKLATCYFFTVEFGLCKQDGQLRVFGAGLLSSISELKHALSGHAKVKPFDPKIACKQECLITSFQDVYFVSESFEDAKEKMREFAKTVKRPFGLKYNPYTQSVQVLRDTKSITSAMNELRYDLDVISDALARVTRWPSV

[2] = Thermodynamic stability of polymorphs; type: physicochemical; settings: particularly at temperatures of less than 95° C., more particularly less than 80° C.
[3] = Solubility of Compound 1, Form 3 in MTBE/n-heptane mixtures; type: physicochemical; settings: organic solvent or mixture, thermodynamic from solid
Experimental: Solubility of Compound 1, Form 3
The solubility of Compound 1 was evaluated in mixtures of MTBE/n-heptane mixtures at 10° C. and 45° C. The form of the residual solids was examined by XRPD.

[4] = Solubility determination by HPLC; type: physicochemical; settings: ethanol
Excerpt: Because of the small differences in solubilities, HPLC was used to measure the solubilities. The values were conformed to the shake-flask results. […] In alcohol, there was a difference in dissolution rate. This difference was not observed for aqueous solutions.

[5] = Shake-flask solubility determination with stepwise addition of solvent; type: physicochemical
Excerpt: The method applied was a shake-flask solubility determination with stepwise addition of the solvent until complete dissolution is observed visually.

For `CCOC(=O)[C@@H]1CC2(CCN(c3cc(O[C@H](c4ccc(Cl)cc4-c4ccccc4)C(F)(F)F)nc(N)n3)CC2)CN1` [(S)-ethyl 8-(2-amino-6-((R)-1-(5-chloro-[1,1′-biphenyl]-2-yl)-2,2,2-trifluoroethoxy)pyrimidin-4-yl)-2,8-diazaspiro[4.5]decane-3-carboxylate], the “efficacy in inhibiting TPH1 in mice” value [1] is given as “demonstrated”.
In the case of `CCOC(=O)[C@@H]1CC2(CCN(c3cc(O[C@H](c4ccc(Cl)cc4-c4ccccc4)C(F)(F)F)nc(N)n3)CC2)CN1` [Form 3, (S)-ethyl 8-(2-amino-6-((R)-1-(5-chloro-[1,1′-biphenyl]-2-yl)-2,2,2-trifluoroethoxy)pyrimidin-4-yl)-2,8-diazaspiro[4.5]decane-3-carboxylate], the “thermodynamic stability compared to crystalline Form 1” value [2] was “substantially greater thermodynamic stability”, the solubility ([3]; MTBE/n-heptane 1/0, 45 °C) was > 500 mg/mL and the solubility ([3]; MTBE/n-heptane 1/1, 10 °C) was 27.2 mg/mL (≈ 46.1 mM). For the same compound, the solubility ([3]; MTBE/n-heptane 1/1, 45 °C) was 89.4 mg/mL (≈ 152 mM), the solubility ([3]; MTBE/n-heptane 1/2, 10 °C) was 17.5 mg/mL (≈ 29.7 mM) and the solubility ([3]; MTBE/n-heptane 1/4, 10 °C) was 6.2 mg/mL (≈ 10.5 mM). The solubility ([3]; MTBE/n-heptane 1/5, 45 °C) was 4.2 mg/mL (≈ 7.12 mM), the “dissolution of remaining slurry in time” value [4] was “dissolved completely” and the solubility ([5]; 2-methyl-tetrahydrofuran) was 106 to 1060 mg/mL. The solubility ([5]; 2-propanol) was <10.1 mg/mL, the solubility ([5]; I-propanol) was 35 to 104 mg/mL and the solubility ([5]; N,N-dimethyl-acetamide) was 108 to 1080 mg/mL. It also gave a solubility ([5]; acetic acid) of 104 to 1040 mg/mL, a solubility ([5]; acetone) of 108 to 1080 mg/mL and a solubility ([5]; acetonitrile) of 99 to 990 mg/mL. It also gave a solubility ([5]; dimethyl sulfoxide) of 109 to 1090 mg/mL, a solubility ([5]; ethanol) of 33 to 100 mg/mL and a solubility ([5]; ethyl acetate) of 95 to 950 mg/mL. For the same compound, the solubility ([5]; formic acid 99%) was 96 to 960 mg/mL, the solubility ([5]; isopropyl acetate) was 94 to 940 mg/mL and the solubility ([5]; methanol) was 102 to 1020 mg/mL. The solubility ([5]; methyl isobutyl) was 100 to 1000 mg/mL, the solubility ([5]; methyl tert-butyl ether) was 106 to 1060 mg/mL and the solubility ([5]; n-heptane) was <9.9 mg/mL. The solubility ([5]; tetrahydrofuran) was 99 to 990 mg/mL, the solubility ([5]; toluene) was 105 to 1050 mg/mL and the solubility ([5]; water) was <10.0 mg/mL.
